Source: patent US9260439B2, “Dihydropyrrolopyrimidine derivatives” (PFIZER INC., priority 2014, dated 2016)
Structures can show the parent of a compound that is named as a salt.

Molecular target: truncated PI3Kα (p110α/iSH2 p85α) (Homo sapiens (Human), UniProt P42336)
Experiment: PI3KA_Act fluorescence polarization kinase assay (Ki)
Format: biochemical
Settings: 1 mM ATP
Procedure, shortened: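 p110α/iSH2 p85α (0.5 nM) was reacted with 30 μM sonicated PIP2 in 50 mM HEPES pH 7.4, 150 mM NaCl, 5 mM MgCl2, 1 mM DTT and 0.05% CHAPS for 30 min at room temperature, then stopped with EDTA. PIP3 was detected by fluorescence polarization (GST-Grp1 PH domain/TAMRA-PIP3), and Ki came from a Morrison tight-binding fit.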

Sequence of truncated PI3Kα (p110α/iSH2 p85α) (P42336 whole entry, the tested form may be a part): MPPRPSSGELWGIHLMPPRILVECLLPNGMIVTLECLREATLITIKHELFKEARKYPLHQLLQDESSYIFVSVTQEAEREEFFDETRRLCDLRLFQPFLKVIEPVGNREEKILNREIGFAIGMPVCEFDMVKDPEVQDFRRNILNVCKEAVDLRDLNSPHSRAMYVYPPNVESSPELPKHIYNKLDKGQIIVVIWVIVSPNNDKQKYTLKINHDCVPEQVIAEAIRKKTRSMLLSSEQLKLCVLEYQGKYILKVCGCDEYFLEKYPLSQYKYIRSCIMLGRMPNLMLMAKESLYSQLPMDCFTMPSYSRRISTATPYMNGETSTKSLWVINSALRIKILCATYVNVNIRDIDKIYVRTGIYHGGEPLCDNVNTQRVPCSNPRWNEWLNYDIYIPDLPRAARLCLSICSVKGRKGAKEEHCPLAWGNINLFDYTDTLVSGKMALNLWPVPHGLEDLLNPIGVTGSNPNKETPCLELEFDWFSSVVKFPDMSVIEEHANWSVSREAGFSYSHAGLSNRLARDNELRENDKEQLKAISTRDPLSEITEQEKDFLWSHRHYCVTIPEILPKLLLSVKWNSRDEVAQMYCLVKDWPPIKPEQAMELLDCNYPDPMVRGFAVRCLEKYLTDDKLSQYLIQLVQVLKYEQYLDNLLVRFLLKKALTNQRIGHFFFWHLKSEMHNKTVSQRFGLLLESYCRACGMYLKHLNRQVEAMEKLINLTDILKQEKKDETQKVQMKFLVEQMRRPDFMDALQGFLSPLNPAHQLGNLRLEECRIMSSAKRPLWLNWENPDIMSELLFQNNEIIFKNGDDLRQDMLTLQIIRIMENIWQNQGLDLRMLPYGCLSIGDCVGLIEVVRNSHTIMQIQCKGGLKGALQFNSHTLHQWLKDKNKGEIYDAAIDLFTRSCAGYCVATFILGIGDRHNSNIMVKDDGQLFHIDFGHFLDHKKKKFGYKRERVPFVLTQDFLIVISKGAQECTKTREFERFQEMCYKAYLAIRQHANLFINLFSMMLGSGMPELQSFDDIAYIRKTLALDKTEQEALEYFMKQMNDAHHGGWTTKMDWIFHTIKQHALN

**Q.** With C[C@H]1COCCN1c1nc(-c2cnc(N)nc2)c2c(n1)N([C@@]1(C)CCN(C(=O)[C@](C)(N)CO)C1)CC2.Cl [Example 485, (2R)-2-amino-1-[(3S)-3-{4-(2-aminopyrimidin-5-yl)-2-[(3S)-3-methylmorpholin-4-yl]-5,6-dihydro-7H-pyrrolo[2,3-d]pyrimidin-7-yl}-3-methylpyrrolidin-1-yl]-3-hydroxy-2-methylpropan-1-one hydrochloride] as the compound, how does the “PI3KA_Act Ki” value read?
**A.** Its value is <0.018 nM.

**Q.** C[C@H]1COCCN1c1nc(-c2cnc(N)nc2)c2c(n1)N([C@@]1(C)CCN(C(=O)[C@@](C)(N)CO)C1)CC2.Cl [Example 486, (2S)-2-amino-1-[(3S)-3-{4-(2-aminopyrimidin-5-yl)-2-[(3S)-3-methylmorpholin-4-yl]-5,6-dihydro-7H-pyrrolo[2,3-d]pyrimidin-7-yl}-3-methylpyrrolidin-1-yl]-3-hydroxy-2-methylpropan-1-one hydrochloride] was tested. Which “PI3KA_Act Ki” value did it give?
**A.** Its value is <0.018 nM.

**Q.** How did the “PI3KA_Act Ki” value turn out when C[C@H]1COCCN1c1nc(-c2cnc(N)nc2)c2c(n1)N([C@@]1(C)CCN(C(=O)C(C)(N)CO)C1)CC2.Cl (stereo partly drawn) [Example 487, 2-amino-1-[(3S)-3-{4-(2-aminopyrimidin-5-yl)-2-[(3S)-3-methylmorpholin-4-yl]-5,6-dihydro-7H-pyrrolo[2,3-d]pyrimidin-7-yl}-3-methylpyrrolidin-1-yl]-3-hydroxy-2-methylpropan-1-one hydrochloride] was run?
**A.** The value was 0.011 nM.

**Q.** For CNC(C)(C)C(=O)N1CC[C@](C)(N2CCc3c(-c4cnc(N)nc4)nc(N4CCOC[C@@H]4C)nc32)C1.Cl [Example 488, 1-[(3S)-3-{4-(2-aminopyrimidin-5-yl)-2-[(3S)-3-methylmorpholin-4-yl]-5,6-dihydro-7H-pyrrolo[2,3-d]pyrimidin-7-yl}-3-methylpyrrolidin-1-yl]-2-methyl-2-(methylamino)propan-1-one hydrochloride], which “PI3KA_Act Ki” value is on record?
**A.** The value was <0.018 nM.

**Q.** C[C@H]1COCCN1c1nc(-c2cnc(N)nc2)c2c(n1)N([C@@]1(C)CCN(C(=O)C(F)(F)CN)C1)CC2.Cl [Example 489, 3-amino-1-[(3S)-3-{4-(2-aminopyrimidin-5-yl)-2-[(3S)-3-methylmorpholin-4-yl]-5,6-dihydro-7H-pyrrolo[2,3-d]pyrimidin-7-yl}-3-methylpyrrolidin-1-yl]-2,2-difluoropropan-1-one hydrochloride] was tested. Which “PI3KA_Act Ki” value did it give?
**A.** The value was <0.018 nM.

**Q.** Which “PI3KA_Act Ki” value does the source give for C[C@H]1COCCN1c1nc(-c2cnc(N)nc2)c2c(n1)N([C@@]1(C)CCN(C(=O)[C@@H](N)C(F)(F)F)C1)CC2.Cl [Example 490, (2R)-2-amino-1-[(3S)-3-{4-(2-aminopyrimidin-5-yl)-2-[(3S)-3-methylmorpholin-4-yl]-5,6-dihydro-7H-pyrrolo[2,3-d]pyrimidin-7-yl}-3-methylpyrrolidin-1-yl]-3,3,3-trifluoropropan-1-one hydrochloride] here?
**A.** The value was <0.018 nM.

**Q.** For C[C@H]1COCCN1c1nc(-c2cnc(N)nc2)c2c(n1)N([C@@]1(C)CCN(C(=O)[C@H](N)C(F)(F)F)C1)CC2.Cl [Example 491, (2S)-2-amino-1-[(3S)-3-{4-(2-aminopyrimidin-5-yl)-2-[(3S)-3-methylmorpholin-4-yl]-5,6-dihydro-7H-pyrrolo[2,3-d]pyrimidin-7-yl}-3-methylpyrrolidin-1-yl]-3,3,3-trifluoropropan-1-one hydrochloride], which “PI3KA_Act Ki” value is on record?
**A.** The value was 0.050 nM.

**Q.** With C[C@H]1COCCN1c1nc(-c2cnc(N)nc2)c2c(n1)N([C@@]1(C)CCN(C(=O)C3(N)CC3)C1)CC2.Cl [Example 492, (1-aminocyclopropyl)[(3S)-3-{4-(2-aminopyrimidin-5-yl)-2-[(3S)-3-methylmorpholin-4-yl]-5,6-dihydro-7H-pyrrolo[2,3-d]pyrimidin-7-yl}-3-methylpyrrolidin-1-yl]methanone hydrochloride] as the compound, how does the “PI3KA_Act Ki” value read?
**A.** The value was 0.101 nM.

**Q.** Which “PI3KA_Act Ki” value does the source give for C[C@H]1COCCN1c1nc(-c2cnc(N)nc2)c2c(n1)N([C@@]1(C)CCN(C(=O)C3(CN)CC3)C1)CC2.Cl [Example 493, [1-(aminomethyl)cyclopropyl][(3S)-3-{4-(2-aminopyrimidin-5-yl)-2-[(3S)-3-methylmorpholin-4-yl]-5,6-dihydro-7H-pyrrolo[2,3-d]pyrimidin-7-yl}-3-methylpyrrolidin-1-yl]methanone hydrochloride] here?
**A.** Its value is 0.061 nM.

**Q.** With C[C@H]1COCCN1c1nc(-c2cnc(N)nc2)c2c(n1)N([C@@]1(C)CCN(C(=O)[C@@]3(C)CCN3)C1)CC2.Cl [Example 494, [(3S)-3-{4-(2-aminopyrimidin-5-yl)-2-[(3S)-3-methylmorpholin-4-yl]-5,6-dihydro-7H-pyrrolo[2,3-d]pyrimidin-7-yl}-3-methylpyrrolidin-1-yl][(2R)-2-methylazetidin-2-yl]methanone hydrochloride] as the compound, how does the “PI3KA_Act Ki” value read?
**A.** Its value is 0.046 nM.

**Q.** With C[C@H]1COCCN1c1nc(-c2cnc(N)nc2)c2c(n1)N([C@@]1(C)CCN(C(=O)[C@]3(C)CCN3)C1)CC2.Cl [Example 495, [(3S)-3-{4-(2-aminopyrimidin-5-yl)-2-[(3S)-3-methylmorpholin-4-yl]-5,6-dihydro-7H-pyrrolo[2,3-d]pyrimidin-7-yl}-3-methylpyrrolidin-1-yl][(2S)-2-methylazetidin-2-yl]methanone hydrochloride] as the compound, how does the “PI3KA_Act Ki” value read?
**A.** The value was 0.031 nM.

**Q.** With C[C@H]1COCCN1c1nc(-c2cnc(N)nc2)c2c(n1)N([C@@]1(C)CCN(C(=O)C3(F)CNC3)C1)CC2 [Example 496, [(3S)-3-{4-(2-aminopyrimidin-5-yl)-2-[(3S)-3-methylmorpholin-4-yl]-5,6-dihydro-7H-pyrrolo[2,3-d]pyrimidin-7-yl}-3-methylpyrrolidin-1-yl](3-fluoroazetidin-3-yl)methanone hydrochloride] as the compound, how does the Ki read?
**A.** Its Ki is < 0.018 nM.

**Q.** C[C@H]1COCCN1c1nc(-c2cnc(N)nc2)c2c(n1)N([C@@]1(C)CCN(C(=O)C3(F)CN(C(=O)OC(C)(C)C)C3)C1)CC2 [Example 497, tert-butyl 3-{[(3S)-3-{4-(2-aminopyrimidin-5-yl)-2-[(3S)-3-methylmorpholin-4-yl]-5,6-dihydro-7H-pyrrolo[2,3-d]pyrimidin-7-yl}-3-methylpyrrolidin-1-yl]carbonyl}-3-fluoroazetidine-1-carboxylate] was tested. Which Ki did it give?
**A.** Its Ki is 0.056 nM.

**Q.** With COC1CN(C(=O)N2CC[C@](C)(N3CCc4c(-c5cnc(N)nc5)nc(N5CCOC[C@@H]5C)nc43)C2)C1 [Example 498, [(3S)-3-{4-(2-aminopyrimidin-5-yl)-2-[(3S)-3-methylmorpholin-4-yl]-5,6-dihydro-7H-pyrrolo[2,3-d]pyrimidin-7-yl}-3-methylpyrrolidin-1-yl](3-methoxyazetidin-1-yl)methanone] as the compound, how does the “PI3KA_Act Ki” value read?
**A.** Its value is 0.048 nM.

**Q.** C[C@H]1COCCN1c1nc(-c2cnc(N)nc2)c2c(n1)N([C@@]1(C)CCN(C(=O)[C@@H]3CCOC3)C1)CC2 [Example 499, [(3S)-3-{4-(2-aminopyrimidin-5-yl)-2-[(3S)-3-methylmorpholin-4-yl]-5,6-dihydro-7H-pyrrolo[2,3-d]pyrimidin-7-yl}-3-methylpyrrolidin-1-yl][(3R)-tetrahydrofuran-3-yl]methanone] was tested. Which “PI3KA_Act Ki” value did it give?
**A.** The value was 0.048 nM.

**Q.** With C[C@H]1COCCN1c1nc(-c2cnc(N)nc2)c2c(n1)N([C@@]1(C)CCN(C(=O)[C@H]3CCOC3)C1)CC2 [Example 500, [(3S)-3-{4-(2-aminopyrimidin-5-yl)-2-[(3S)-3-methylmorpholin-4-yl]-5,6-dihydro-7H-pyrrolo[2,3-d]pyrimidin-7-yl}-3-methylpyrrolidin-1-yl][(3S)-tetrahydrofuran-3-yl]methanone] as the compound, how does the “PI3KA_Act Ki” value read?
**A.** Its value is 0.064 nM.

**Q.** How did the “PI3KA_Act Ki” value turn out when C[C@H]1COCCN1c1nc(-c2cnc(N)nc2)c2c(n1)N([C@@]1(C)CCN(C(=O)[C@H]3CCCO3)C1)CC2 [Example 501, [(3S)-3-{4-(2-aminopyrimidin-5-yl)-2-[(3S)-3-methylmorpholin-4-yl]-5,6-dihydro-7H-pyrrolo[2,3-d]pyrimidin-7-yl}-3-methylpyrrolidin-1-yl][(2R)-tetrahydrofuran-2-yl]methanone] was run?
**A.** The value was 0.035 nM.

**Q.** CNC(=N)N1CC[C@](C)(N2CCc3c(-c4cnc(N)nc4)nc(N4CCOC[C@@H]4C)nc32)C1 [Example 504, (3S)-3-{4-(2-aminopyrimidin-5-yl)-2-[(3S)-3-methylmorpholin-4-yl]-5,6-dihydro-7H-pyrrolo[2,3-d]pyrimidin-7-yl}-N,3-dimethylpyrrolidine-1-carboximidamide] was tested. Which “PI3KA_Act Ki” value did it give?
**A.** Its value is 0.109 nM.

**Q.** Which “PI3KA_Act Ki” value does the source give for CNC(=O)N1CC[C@@](C)(N2CCc3c(-c4cnc(N)nc4)nc(N4CCOC[C@@H]4C)nc32)C1 [Example 505, (3R)-3-{4-(2-aminopyrimidin-5-yl)-2-[(3S)-3-methylmorpholin-4-yl]-5,6-dihydro-7H-pyrrolo[2,3-d]pyrimidin-7-yl}-N,3-dimethylpyrrolidine-1-carboxamide] here?
**A.** The value was 0.139 nM.

**Q.** How did the “PI3KA_Act Ki” value turn out when CNC(=O)N1CC[C@](C)(N2CCc3c(-c4cnc(N)nc4)nc(N4CCOC[C@@H]4C)nc32)C1 [Example 506, (3S)-3-{4-(2-aminopyrimidin-5-yl)-2-[(3S)-3-methylmorpholin-4-yl]-5,6-dihydro-7H-pyrrolo[2,3-d]pyrimidin-7-yl}-N,3-dimethylpyrrolidine-1-carboxamide] was run?
**A.** The value was 0.061 nM.

**Q.** How did the Ki turn out when CCNC(=O)N1CC[C@](C)(N2CCc3c(-c4cnc(N)nc4)nc(N4CCOCC4)nc32)C1 [Example 507, (3S)-3-[4-(2-aminopyrimidin-5-yl)-2-(morpholin-4-yl)-5,6-dihydro-7H-pyrrolo[2,3-d]pyrimidin-7-yl]-N-ethyl-3-methylpyrrolidine-1-carboxamide] was run?
**A.** The Ki was 0.082 nM.

**Q.** How did the “PI3KA_Act Ki” value turn out when COC(=O)N1CC[C@](C)(N2CCc3c(-c4cnc(N)nc4)nc(N4CCOC[C@@H]4C)nc32)C1 [Example 508, methyl (3S)-3-{4-(2-aminopyrimidin-5-yl)-2-[(3S)-3-methylmorpholin-4-yl]-5,6-dihydro-7H-pyrrolo[2,3-d]pyrimidin-7-yl}-3-methylpyrrolidine-1-carboxylate] was run?
**A.** Its value is <0.018 nM.

**Q.** How did the “PI3KA_Act Ki” value turn out when COC(=O)N1CC[C@@](C)(N2CCc3c(-c4cnc(N)nc4)nc(N4CCOC[C@@H]4C)nc32)C1 [Example 509, methyl (3R)-3-{4-(2-aminopyrimidin-5-yl)-2-[(3S)-3-methylmorpholin-4-yl]-5,6-dihydro-7H-pyrrolo[2,3-d]pyrimidin-7-yl}-3-methylpyrrolidine-1-carboxylate] was run?
**A.** Its value is 0.135 nM.
